This passage reports T/C results from PubChem BioAssay AID256 (DTP/NCI, 2004).

Toxic doses and inconclusive results are not listed.

The experiment has as its system CD2F1 mice, L1210 leukemia ip, survival T/C. Briefly: NCI In Vivo Anticancer Drug Screen. Data for tumor model L1210 Leukemia (intraperitoneal) in CD2F1 (CDF1) mice. The note with it: endpoint: mean survival time, higher = longer survival. In outline:
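Read-out first: treated-group measurement over vehicle-control measurement, expressed as a ratio. Animals bore a transplanted tumor line and were dosed with compound or vehicle.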

Where [1] appears, read: dose: 50.0 mg/kg/injection, schedule: Q01DX009 (ip), vehicle: saline.
Where [2] appears, read: dose: 100.0 mg/kg/injection, schedule: Q01DX009 (ip), vehicle: saline.
The mark [3] stands for this setting: dose: 200.0 mg/kg/injection, schedule: Q01DX009 (ip), vehicle: saline.
Setting [4] is: dose: 400.0 mg/kg/injection, schedule: Q01DX009 (ip), vehicle: saline.
Where [5] appears, read: dose: 100.0 mg/kg/injection, schedule: Q04DX003 (ip), vehicle: saline with Tween-80.
[6] abbreviates: dose: 200.0 mg/kg/injection, schedule: Q04DX003 (ip), vehicle: saline with Tween-80.
Where [7] appears, read: dose: 400.0 mg/kg/injection, schedule: Q04DX003 (ip), vehicle: saline with Tween-80.
The mark [8] stands for this setting: dose: 100.0 mg/kg/injection, schedule: Q01DX009 (ip), vehicle: saline with Tween-80.
[9] abbreviates: dose: 200.0 mg/kg/injection, schedule: Q01DX009 (ip), vehicle: saline with Tween-80.
The mark [10] stands for this setting: dose: 400.0 mg/kg/injection, schedule: Q01DX009 (ip), vehicle: saline with Tween-80.
[11] abbreviates: dose: 100.0 mg/kg/injection, schedule: Q01DX001 (ip), vehicle: saline with Tween-80.
Setting [12] is: dose: 200.0 mg/kg/injection, schedule: Q01DX001 (ip), vehicle: saline with Tween-80.
The mark [13] stands for this setting: dose: 400.0 mg/kg/injection, schedule: Q01DX001 (ip), vehicle: saline with Tween-80.
Where [14] appears, read: dose: 75.0 mg/kg/injection, schedule: Q01DX001 (ip), vehicle: other.
[15] abbreviates: dose: 150.0 mg/kg/injection, schedule: Q01DX001 (ip), vehicle: other.
[16] abbreviates: dose: 100.0 mg/kg/injection, schedule: Q04DX003 (ip), vehicle: saline.
The mark [17] stands for this setting: dose: 200.0 mg/kg/injection, schedule: Q04DX003 (ip), vehicle: saline.

In the case of `O=C(O)C(CSC(c1ccccc1)(c1ccccc1)c1ccccc1)NC(c1ccccc1)c1ccccc1` (stereo unspecified), the T/C by setting is: under setting [1], 101 % of control; under setting [2], 98 % of control; under setting [3], 101 % of control; under setting [4], 101 % of control.

Regarding `COc1ccc(C(=O)C(Br)Br)cc1OC`, the T/C is 112 % of control (dose: 3.13 mg/kg/injection, schedule: Q04DX002 (ip), vehicle: saline with Tween-80); 100 % of control (dose: 6.25 mg/kg/injection, schedule: Q04DX002 (ip), vehicle: saline with Tween-80); 100 % of control (dose: 12.5 mg/kg/injection, schedule: Q04DX002 (ip), vehicle: saline with Tween-80).

For `CC(=NCC(C)N=C(C)c1ccccc1O)c1ccccc1O.[Ni]` (stereo unspecified), the T/C reads like this: (dose: 50.0 mg/kg/injection, schedule: Q04DX002 (ip), vehicle: saline with Tween-80) 109 % of control; (dose: 100.0 mg/kg/injection, schedule: Q04DX002 (ip), vehicle: saline with Tween-80) 97 % of control; (dose: 200.0 mg/kg/injection, schedule: Q04DX002 (ip), vehicle: saline with Tween-80) 97 % of control; (dose: 400.0 mg/kg/injection, schedule: Q04DX002 (ip), vehicle: saline with Tween-80) 97 % of control.

For `CCOC1=NN(c2ccccc2)C(=O)C1`, the T/C is 97 % of control under setting [5], 100 % of control under setting [6] and 103 % of control under setting [7].

For the compound `CCCCCCCCCc1ccc(OCCOCCOCCOCCOCCOCCOCCOCCOCCOC(C)N2CCCC2=O)cc1` (stereo unspecified), the T/C runs as follows: (dose: 25.0 mg/kg/injection, schedule: Q01DX009 (ip), vehicle: saline with Tween-80) 96 % of control; (dose: 50.0 mg/kg/injection, schedule: Q04DX003 (ip), vehicle: saline with Tween-80) 108 % of control; under setting [5], 93 % of control.

Regarding `CC1(C)CC(O)(Cc2ccccc2)C(=O)c2ccccc21` (stereo unspecified), the T/C is, setting by setting: (dose: 25.0 mg/kg/injection, schedule: Q01DX009 (ip), vehicle: water) 95 % of control; (dose: 50.0 mg/kg/injection, schedule: Q01DX009 (ip), vehicle: water) 92 % of control; (dose: 100.0 mg/kg/injection, schedule: Q01DX009 (ip), vehicle: water) 95 % of control; (dose: 200.0 mg/kg/injection, schedule: Q01DX009 (ip), vehicle: water) 95 % of control; (dose: 400.0 mg/kg/injection, schedule: Q01DX009 (ip), vehicle: water) 97 % of control.

With `N#CC(=C1CCCCC1)c1ccccc1`, the T/C runs as follows: (dose: 75.0 mg/kg/injection, schedule: Q01DX001 (ip), vehicle: saline) 98 % of control; (dose: 150.0 mg/kg/injection, schedule: Q01DX001 (ip), vehicle: saline) 104 % of control; (dose: 300.0 mg/kg/injection, schedule: Q01DX001 (ip), vehicle: saline) 96 % of control.

Turning to `CCN(Cc1cccc(S(=O)(=O)O)c1)c1ccc(C(=C2C=CC(=[N+](CC)Cc3cccc(S(=O)(=O)O)c3)C=C2)c2ccc(S(=O)(=O)O)cc2)cc1`, the T/C under setting [8] is 103 % of control; the T/C under setting [5] is 96 % of control; the T/C under setting [9] was 97 % of control; the T/C under setting [6] was 93 % of control; the T/C under setting [10] was 95 % of control; the T/C under setting [7] is 90 % of control.

Regarding `O=[N+]([O-])c1ccc2c([N+](=O)[O-])cc(O)cc2c1`, the T/C reads like this: under setting [11], 95 % of control; under setting [8], 96 % of control; under setting [12], 105 % of control; under setting [9], 96 % of control; under setting [13], 100 % of control; under setting [10], 98 % of control.

Turning to `CC(C)CCCC(C)C1CCC2C3CC(C(=O)O)C(C)(CCC(=O)O)C3CCC12C` (stereo unspecified), the T/C under setting [14] was 108 % of control and the T/C under setting [15] is 104 % of control.

Take `CC(=O)OCC1OC(n2c(Br)nc3c(=O)[nH]c(N)nc32)C(OC(C)=O)C1OC(C)=O` (stereo unspecified): the T/C by setting is: under setting [5], 100 % of control; under setting [6], 105 % of control; under setting [7], 107 % of control.

With `N#CSCc1ccc(Cl)cc1Cl`, the T/C reads like this: (dose: 50.0 mg/kg/injection, schedule: Q01DX009 (ip), vehicle: saline with Tween-80) 103 % of control; under setting [8], 101 % of control; under setting [9], 96 % of control.

Consider `CS(=O)(=O)OCCCN(CCCOS(C)(=O)=O)c1ccc(C=Nc2ccc(-c3csc(COc4ccc(Cl)cc4Cl)n3)cc2)cc1`, for which the T/C runs as follows: under setting [11], 86 % of control; under setting [8], 93 % of control; under setting [12], 86 % of control; under setting [13], 89 % of control.

With `Nc1cc(Cl)nnc1Cl`, the T/C is 97 % of control (dose: 50.0 mg/kg/injection, schedule: Q01DX009 (ip), vehicle: other); 103 % of control (dose: 100.0 mg/kg/injection, schedule: Q01DX009 (ip), vehicle: other); 98 % of control under setting [16]; 97 % of control (dose: 200.0 mg/kg/injection, schedule: Q01DX009 (ip), vehicle: other); 101 % of control under setting [17].

On to `CC[N+](C)(CC)CCCOC(=O)c1ccccc1Oc1ccc(C)cc1`, for which the T/C under setting [1] was 102 % of control.

For `COC(=O)C(N)CSCc1ccccc1` (stereo unspecified), the T/C (dose: 100.0 mg/kg/injection, schedule: Q01DX001 (ip), vehicle: saline) is 100 % of control; the T/C under setting [2] is 102 % of control; the T/C under setting [3] was 97 % of control; the T/C (dose: 400.0 mg/kg/injection, schedule: Q01DX001 (ip), vehicle: saline) is 100 % of control; the T/C under setting [4] was 98 % of control.

`Cc1c(N)c(=O)n(-c2ccccc2)n1C`: the T/C is 97 % of control under setting [16]; 103 % of control under setting [17]; 101 % of control (dose: 400.0 mg/kg/injection, schedule: Q04DX003 (ip), vehicle: saline).

Regarding `O=C(Nc1ccc(Cl)cc1)Nc1ccccc1F`, the T/C is 97 % of control under setting [8], 103 % of control under setting [9] and 105 % of control under setting [10].

With `CCC[P+](c1ccccc1)(c1ccccc1)c1ccccc1`, the T/C is, setting by setting: (dose: 3.13 mg/kg/injection, schedule: Q01DX009 (ip), vehicle: saline) 106 % of control; (dose: 6.25 mg/kg/injection, schedule: Q01DX009 (ip), vehicle: saline) 113 % of control; (dose: 12.5 mg/kg/injection, schedule: Q01DX009 (ip), vehicle: saline) 120 % of control; (dose: 25.0 mg/kg/injection, schedule: Q01DX009 (ip), vehicle: saline) 117 % of control; under setting [14], 93 % of control.

As for `Cc1nc2[nH]c(=O)n(O)c(=O)c2s1`, the T/C reads like this: under setting [14], 102 % of control; under setting [15], 100 % of control; (dose: 300.0 mg/kg/injection, schedule: Q01DX001 (ip), vehicle: other) 86 % of control.

`O=S(=O)(O)c1cccnc1`: the T/C was 94 % of control (dose: 100.0 mg/kg/injection, schedule: Q04DX002 (ip), vehicle: saline); 94 % of control (dose: 200.0 mg/kg/injection, schedule: Q04DX002 (ip), vehicle: saline); 97 % of control (dose: 400.0 mg/kg/injection, schedule: Q04DX002 (ip), vehicle: saline).

For the compound `CN=C(NC)c1ccc(NC(=O)c2ccc(C(=O)Nc3ccc(C(=NC)NC)cc3)c(N)c2)cc1`, the T/C was 176 % of control (dose: 2.25 mg/kg/injection, schedule: Q01DX Z (ip), vehicle: water) and 176 % of control (dose: 4.5 mg/kg/injection, schedule: Q01DX Z (ip), vehicle: water).

Take `OC1CCCCO1` (stereo unspecified): the T/C reads like this: under setting [5], 100 % of control; under setting [6], 103 % of control; under setting [7], 103 % of control.

For the compound `O=C(O)c1ccccc1C(=O)c1ccc(Cl)cc1`, the T/C under setting [8] was 100 % of control; the T/C under setting [5] is 94 % of control; the T/C under setting [9] was 110 % of control; the T/C under setting [6] is 97 % of control; the T/C under setting [10] was 108 % of control; the T/C under setting [7] is 95 % of control.

In the case of `CC(C)C(Nc1sc([N+](=O)[O-])cc1[N+](=O)[O-])C(=O)O` (stereo unspecified), the T/C was 90 % of control under setting [11], 102 % of control under setting [12] and 107 % of control under setting [13].
